Laboratory results: PubChem BioAssay AID1259411 (Chemical Carcinogenesis Research Information System (CCRIS), 2018)
Activity calls are given as the source filed them. No rule for the calls is given here.

Test system: rodent carcinogenicity bioassays, tumor incidence
Experiment: CCRIS carcinogenicity studies
Procedure, shortened: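 NCI-built, expert-reviewed records of carcinogenicity and related test outcomes (mutagenicity, tumor promotion/inhibition) compiled from published and report sources, historical span 1985-2011, not updated.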

Question: What does the source list for `O=NN1CCOCC1`?
Answer: carcinogen call (Species: FISH, Route: ORAL, Tumor Site: Type of Lesion: LIVER): active; positive; carcinogen call (Species: HAMSTER, Route: ORAL, Tumor Site: Type of Lesion: LIVER): active; positive; carcinogen call (Species: HAMSTER, Route: SUBCUTANEOUS, Tumor Site: Type of Lesion: TRACHEA, NASAL CAVITY): active; positive; carcinogen call (Species: HAMSTER, Strain/Sex: SYRIAN/MALE, Route: INHALATION, Dose: 0, 14.4 MG/M3 4 HR/D 4-5 D/WK FOR 5 WK FOR A DAILY DOSE OF 0, 1.8 MG/KG (STUDY DURATION: 91 WK), Dose: 0, 14.4 MG/M3 4 HR/D 4-5 D/WK FOR 5 WK FOR A DAILY DOSE OF 0, 1.8 MG/KG (STUDY DURATION: 91 WK), Tumor Site: Type of Lesion: LIVER: HEPATOCELLULAR CARCINOMA OR HEMANGIOENDOTHELIOMA OR CARCINOMA, FORESTOMACH: PAPILLOMA, TRACHEA: PAPILLOMA, Tumor Site: Type of Lesion: LIVER: HEPATOCELLULAR CARCINOMA OR HEMANGIOENDOTHELIOMA OR CARCINOMA, FORESTOMACH: PAPILLOMA, TRACHEA: PAPILLOMA): active; positive; carcinogen call (Species: HAMSTER, Strain/Sex: SYRIAN/MALE, Route: INTRAGASTRIC, Dose: 0, 26 MG/ML IN 0.2 ML STERILIZED WATER 1/WK FOR 26 WK (TOTAL DOSE 135 MG) (STUDY DURATION: LIFESPAN), Tumor Site: Type of Lesion: NASAL CAVITY: CARCINOMA, TRACHEA: ADENOMA): active; positive; carcinogen call (Species: MOUSE, Route: ORAL, Tumor Site: Type of Lesion: LIVER, LUNG): active; positive; carcinogen call (Species: MOUSE, Strain/Sex: STRAIN-A/FEMALE, Route: ORAL, Dose: 0, 0.2 UMOL/ML IN DRINKING WATER FOR 10 WK (TOTAL DOSE: 0, 54 UMOL) FOLLOWED BY TAP WATER FOR 20 WK (STUDY DURATION: 30, Tumor Site: Type of Lesion: LUNG: TUMORS): active; positive; carcinogen call (Species: RAT, Route: ORAL, Tumor Site: Type of Lesion: KIDNEY, LIVER): active; positive; carcinogen call (Species: RAT, Strain/Sex: F344/FEMALE, Route: GAVAGE, Dose: 0, 10 MG/WK FOR A TOTAL DOSE OF 1.9 MMOL (STUDY DYRATION: 30 WK), Tumor Site: Type of Lesion: ESOPHAGUS: TUMOR, LIVER: TUMOR, THYROID: TUMOR, Tumor Site: Type of Lesion: ESOPHAGUS: TUMOR, LIVER: TUMOR, THYROID: TUMOR): active; positive; carcinogen call (Species: RAT, Strain/Sex: F344/FEMALE, Route: INTRAVESICULAR, Dose: 0, 5 MG IN 0.2 ML ETHANOL: DEIONIZED WATER (1:3) 2/WK FOR 30 WK (TOTAL DOSE 2.6 MMOL) (STUDY DURATION: LIFESPAN), Tumor Site: Type of Lesion: LIVER: TUMOR, NASAL MUCOSA: TUMOR, ESOPHAGUS: TUMOR, Tumor Site: Type of Lesion: LIVER: TUMOR, NASAL MUCOSA: TUMOR, ESOPHAGUS: TUMOR): active; positive; carcinogen call (Species: RAT, Strain/Sex: F344/FEMALE, Route: ORAL, Dose: 0, 26.5 MG/L IN DRINKING WATER 5 D/WK FOR 50 WK (TOTAL DOSE: 0; 1.1 MMOL) (STUDY DURATION: 124 WK), Dose: 0, 26.5 MG/L IN DRINKING WATER 5 D/WK FOR 50 WK (TOTAL DOSE: 0; 1.1 MMOL) (STUDY DURATION: 124 WK), Tumor Site: Type of Lesion: LIVER: HEPATOCELLULAR TUMOR, HEMANGIOSARCOMA): active; positive; carcinogen call (Species: RAT, Strain/Sex: F344/FEMALE, Route: ORAL, Dose: 40 MG/L IN DRINKING WATER FOR 50 WK, Tumor Site: Type of Lesion: LIVER: HEPATOCELLULAR CARCINOMA, HEMANGIOENDOTHELIAL SARCOMA, ESOPHAGUS: PAPILLOMA, CARCINOMA): active; positive; carcinogen call (Species: RAT, Strain/Sex: F344/MALE, Route: ORAL, Dose: 0, 0.02% IN DRINKING WATER FOR 8 WK (STUDY DURATION: 20 WK), Tumor Site: Type of Lesion: LIVER: HEPATOCELLULAR CARCINOMA): active; positive; carcinogen call (Species: RAT, Strain/Sex: F344/MALE, Route: ORAL, Dose: 16, 40 MG/L IN DRINKING WATER FOR 50 WK, Tumor Site: Type of Lesion: LIVER: HEPATOCELLULAR CARCINOMA, HEMANGIOENDOTHELIAL SARCOMA, ESOPHAGUS: PAPILLOMA): active; positive; carcinogen call (Species: RAT, Strain/Sex: SD/G/MALE, Route: ORAL, Dose: 0, 0.02% IN DRINKING WATER FOR 8 WK (STUDY DURATION: 20 WK)): inactive; negative; carcinogen call (Species: RAT, Strain/Sex: SPRAGUE-DAWLEY/FEMALE, Route: INHALATION, Dose: 0, 7.7 MG/M3 4 HR/D 4-5 D/WK FOR 6 WK FOR A DAILY DOSE OF 0, 0.5 MG/KG (STUDY DURATION: 124 WK), Dose: 0, 7.7 MG/M3 4 HR/D 4-5 D/WK FOR 6 WK FOR A DAILY DOSE OF 0, 0.5 MG/KG (STUDY DURATION: 124 WK), Tumor Site: Type of Lesion: LIVER: HEPATOCELLULAR CARCINOMA, NEOPLASTIC NODULE): active; positive; carcinogen call (Species: RAT, Strain/Sex: WS/MALE, Route: ORAL, Dose: 0, 0.02% IN DRINKING WATER FOR 8 WK (STUDY DURATION: 20 WK), Tumor Site: Type of Lesion: LIVER: HEPATOCELLULAR CARCINOMA): active; positive

Question: `CC1=CC(=C(c2ccc(N)cc2)c2ccc(N)cc2)C=CC1=N` was tested. Which carcinogen call (Species: HUMAN, Route: ORAL, INHALATION, DERMAL, Tumor Site: Type of Lesion: URINARY BLADDER) did it give?
Answer: active; positive

Question: And the carcinogen call (Species: RAT, Strain/Sex: SPRAGUE-DAWLEY/FEMALE, Route: GAVAGE, Dose: 0, 200 MG/KG BW 2/WK FOR 8 WK WITH A 1 WK REST AFTER 2 WK THEN STARTING AT 9 WK 100 MG/KG BW 2/WK FOR DURATION OF STUDY)?
Answer: inactive; negative

Question: What about the carcinogen call (Species: RAT, Strain/Sex: SPRAGUE-DAWLEY/MALE, Route: GAVAGE, Dose: 0, 200 MG/KG BW 2/WK FOR 8 WK WITH A 1 WK REST AFTER 2 WK THEN STARTING AT 9 WK 100 MG/KG BW 2/WK FOR DURATION OF STUDY) of the same compound?
Answer: inactive; negative

Question: What does the source list for `COc1cc(S(=O)(=O)O)c(C)cc1N=Nc1c(O)ccc2cc(S(=O)(=O)O)ccc12`?
Answer: carcinogen call (Species: MOUSE, Strain/Sex: CD-1/FEMALE, Route: ORAL, Dose: 0, 0.37, 1.39, 5.19% IN DIET FOR LIFE TO OFFSPRING OF ANIMALS ADMINISTERED THE SAME DOSES DURING BREEDING, GESTATION AND, Dose: 0, 0.37, 1.39, 5.19% IN DIET FOR LIFE TO OFFSPRING OF ANIMALS ADMINISTERED THE SAME DOSES DURING BREEDING, GESTATION AND): inactive; negative; carcinogen call (Species: MOUSE, Strain/Sex: CD-1/MALE, Route: ORAL, Dose: 0, 0.37, 1.39, 5.19% IN DIET FOR LIFE TO OFFSPRING OF ANIMALS ADMINISTERED THE SAME DOSES DURING BREEDING, GESTATION AND, Dose: 0, 0.37, 1.39, 5.19% IN DIET FOR LIFE TO OFFSPRING OF ANIMALS ADMINISTERED THE SAME DOSES DURING BREEDING, GESTATION AND): inactive; negative; carcinogen call (Species: MOUSE, Strain/Sex: HAM/ICR/FEMALE, Route: ORAL, Dose: 0, 0.37, 1.39, 5.19% IN DIET FOR LIFE TO OFFSPRING OF ANIMALS ADMINISTERED THE SAME DOSES DURING BREEDING, GESTATION AND, Dose: 0, 0.37, 1.39, 5.19% IN DIET FOR LIFE TO OFFSPRING OF ANIMALS ADMINISTERED THE SAME DOSES DURING BREEDING, GESTATION AND): inactive; negative; carcinogen call (Species: MOUSE, Strain/Sex: HAM/ICR/MALE, Route: ORAL, Dose: 0, 0.37, 1.39, 5.19% IN DIET FOR LIFE TO OFFSPRING OF ANIMALS ADMINISTERED THE SAME DOSES DURING BREEDING, GESTATION AND, Dose: 0, 0.37, 1.39, 5.19% IN DIET FOR LIFE TO OFFSPRING OF ANIMALS ADMINISTERED THE SAME DOSES DURING BREEDING, GESTATION AND): inactive; negative; carcinogen call (Species: RAT, Strain/Sex: SPRAGUE-DAWLEY/FEMALE, Route: ORAL, Dose: 0, 0.37, 1.39, 5.19% OF DIET BEGINNING WITH PARENTAL GENERATION AND CONTINUING WITH THE OFFSPRING FOLLOWING WEANING (STU, Dose: 0, 0.37, 1.39, 5.19% OF DIET BEGINNING WITH PARENTAL GENERATION AND CONTINUING WITH THE OFFSPRING FOLLOWING WEANING (STU): inactive; negative; carcinogen call (Species: RAT, Strain/Sex: SPRAGUE-DAWLEY/MALE, Route: ORAL, Dose: 0, 0.37, 1.39, 5.19% OF DIET BEGINNING WITH PARENTAL GENERATION AND CONTINUING WITH THE PUPS FOLLOWING WEANING (STUDY DU, Dose: 0, 0.37, 1.39, 5.19% OF DIET BEGINNING WITH PARENTAL GENERATION AND CONTINUING WITH THE PUPS FOLLOWING WEANING (STUDY DU): inactive; negative
